{
  "source": "PubChem BioAssay AID2060906",
  "about": "(Molecular Pharmacology Branch, DTP, NCI, 2025)",
  "system": "485176-168-R4-J1-PDC complex spheroid growth",
  "assay": "Anticancer human tumor 485176-168-R4-J1-PDC patient-derived pancreatic adenocarcinoma cell line growth inhibition [RAS]",
  "conditions": "for IC50: curve of first compound; for viability, T/C: stronger effect = lower value",
  "how_it_was_run": "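Multi-cell-type spheroids: tumor cells plus HUVEC endothelial cells and mesenchymal stem cells. RAS-pathway inhibitors were combined with targeted agents, each dosed in half-log steps down from clinical Cmax, or from 10 microM when Cmax was unknown.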",
  "data": [
    {"compound": "CCC(CC)c1cc(NC2CCC(N)C2)n2nccc2n1", "note": "(centres undefined) + CCn1c(-c2cccnc2C(C)OC)c2c3cc(ccc31)N1CCOC(CC(NC(=O)C(C(C)C)N(C)C(=O)C3(F)CCN(C(=O)C#CC(C)(C)N(C)C)CC3)C(=O)N3CCCC(N3)C(=O)OCC(C)(C)C2)C1;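 note: spheroids exposed to compounds for seven days before readout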;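 for viability, T/C: luminescence viability expressed relative to DMSO vehicle wells set as 100%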", "values": [
      {"measurement": "IC50", "setting": "second compound 0.000949 µM", "value": 1260, "unit": "nM"},
      {"measurement": "IC50", "setting": "second compound 0.003 µM", "value": 1440, "unit": "nM"},
      {"measurement": "IC50", "setting": "second compound 0.00949 µM", "value": 1270, "unit": "nM"},
      {"measurement": "IC50", "setting": "second compound 0.03 µM", "value": 1080, "unit": "nM"},
      {"measurement": "IC50", "setting": "second compound 0.0949 µM", "value": 1010, "unit": "nM"},
      {"measurement": "IC50", "setting": "second compound 0.3 µM", "value": 521, "unit": "nM"},
      {"measurement": "viability, T/C", "setting": "second compound 0.000949 µM, first compound 0.0316 µM", "value": 94.6, "unit": "%"},
      {"measurement": "viability, T/C", "setting": "second compound 0.000949 µM, first compound 0.1 µM", "value": 117, "unit": "%"},
      {"measurement": "viability, T/C", "setting": "second compound 0.000949 µM, first compound 0.316 µM", "value": 86, "unit": "%"},
      {"measurement": "viability, T/C", "setting": "second compound 0.000949 µM, first compound 1 µM", "value": 64.1, "unit": "%"},
      {"measurement": "viability, T/C", "setting": "second compound 0.000949 µM, first compound 3.16 µM", "value": 2.09, "unit": "%"},
      {"measurement": "viability, T/C", "setting": "second compound 0.000949 µM, first compound 10 µM", "value": 0.42, "unit": "%"},
      {"measurement": "viability, T/C", "setting": "second compound 0.003 µM, first compound 0.0316 µM", "value": 105, "unit": "%"},
      {"measurement": "viability, T/C", "setting": "second compound 0.003 µM, first compound 0.1 µM", "value": 104, "unit": "%"},
      {"measurement": "viability, T/C", "setting": "second compound 0.003 µM, first compound 0.316 µM", "value": 100, "unit": "%"},
      {"measurement": "viability, T/C", "setting": "second compound 0.003 µM, first compound 1 µM", "value": 72.1, "unit": "%"},
      {"measurement": "viability, T/C", "setting": "second compound 0.003 µM, first compound 3.16 µM", "value": 2.19, "unit": "%"},
      {"measurement": "viability, T/C", "setting": "second compound 0.003 µM, first compound 10 µM", "value": 0.46, "unit": "%"},
      {"measurement": "viability, T/C", "setting": "second compound 0.00949 µM, first compound 0.0316 µM", "value": 88.4, "unit": "%"},
      {"measurement": "viability, T/C", "setting": "second compound 0.00949 µM, first compound 0.1 µM", "value": 79.7, "unit": "%"},
      {"measurement": "viability, T/C", "setting": "second compound 0.00949 µM, first compound 0.316 µM", "value": 98.8, "unit": "%"},
      {"measurement": "viability, T/C", "setting": "second compound 0.00949 µM, first compound 1 µM", "value": 62.6, "unit": "%"},
      {"measurement": "viability, T/C", "setting": "second compound 0.00949 µM, first compound 3.16 µM", "value": 2.5, "unit": "%"},
      {"measurement": "viability, T/C", "setting": "second compound 0.00949 µM, first compound 10 µM", "value": 0.59, "unit": "%"},
      {"measurement": "viability, T/C", "setting": "second compound 0.03 µM, first compound 0.0316 µM", "value": 96, "unit": "%"},
      {"measurement": "viability, T/C", "setting": "second compound 0.03 µM, first compound 0.1 µM", "value": 105, "unit": "%"},
      {"measurement": "viability, T/C", "setting": "second compound 0.03 µM, first compound 0.316 µM", "value": 95.9, "unit": "%"},
      {"measurement": "viability, T/C", "setting": "second compound 0.03 µM, first compound 1 µM", "value": 53.7, "unit": "%"},
      {"measurement": "viability, T/C", "setting": "second compound 0.03 µM, first compound 3.16 µM", "value": 2.5, "unit": "%"},
      {"measurement": "viability, T/C", "setting": "second compound 0.03 µM, first compound 10 µM", "value": 0.41, "unit": "%"},
      {"measurement": "viability, T/C", "setting": "second compound 0.0949 µM, first compound 0.0316 µM", "value": 87, "unit": "%"},
      {"measurement": "viability, T/C", "setting": "second compound 0.0949 µM, first compound 0.1 µM", "value": 77.3, "unit": "%"},
      {"measurement": "viability, T/C", "setting": "second compound 0.0949 µM, first compound 0.316 µM", "value": 94.2, "unit": "%"},
      {"measurement": "viability, T/C", "setting": "second compound 0.0949 µM, first compound 1 µM", "value": 50.3, "unit": "%"},
      {"measurement": "viability, T/C", "setting": "second compound 0.0949 µM, first compound 3.16 µM", "value": 2.64, "unit": "%"},
      {"measurement": "viability, T/C", "setting": "second compound 0.0949 µM, first compound 10 µM", "value": 0.46, "unit": "%"},
      {"measurement": "viability, T/C", "setting": "second compound 0.3 µM, first compound 0.0316 µM", "value": 82.9, "unit": "%"},
      {"measurement": "viability, T/C", "setting": "second compound 0.3 µM, first compound 0.1 µM", "value": 72.8, "unit": "%"},
      {"measurement": "viability, T/C", "setting": "second compound 0.3 µM, first compound 0.316 µM", "value": 64.5, "unit": "%"},
      {"measurement": "viability, T/C", "setting": "second compound 0.3 µM, first compound 1 µM", "value": 32.7, "unit": "%"},
      {"measurement": "viability, T/C", "setting": "second compound 0.3 µM, first compound 3.16 µM", "value": 2.76, "unit": "%"},
      {"measurement": "viability, T/C", "setting": "second compound 0.3 µM, first compound 10 µM", "value": 0.53, "unit": "%"}
    ]},
    {"compound": "CCC(CC)c1cc(NC2CCC(N)C2)n2nccc2n1", "note": "(centres undefined) + C#Cc1c(F)ccc2cc(O)cc(-c3ncc4c(N5CC6CCC(C5)N6)nc(OCC56CCCN5CC(F)C6)nc4c3F)c12", "values": [
      {"measurement": "IC50", "setting": "second compound 0.0316 µM", "value": 1360, "unit": "nM"},
      {"measurement": "IC50", "setting": "second compound 0.1 µM", "value": 1480, "unit": "nM"},
      {"measurement": "IC50", "setting": "second compound 0.316 µM", "value": 1610, "unit": "nM"},
      {"measurement": "IC50", "setting": "second compound 1 µM", "value": 1610, "unit": "nM"},
      {"measurement": "IC50", "setting": "second compound 3.16 µM", "value": 1500, "unit": "nM"},
      {"measurement": "IC50", "setting": "second compound 10 µM", "value": 1460, "unit": "nM"},
      {"measurement": "viability, T/C", "setting": "second compound 0.0316 µM, first compound 0.0316 µM", "value": 115, "unit": "%"},
      {"measurement": "viability, T/C", "setting": "second compound 0.0316 µM, first compound 0.1 µM", "value": 80.2, "unit": "%"},
      {"measurement": "viability, T/C", "setting": "second compound 0.0316 µM, first compound 0.316 µM", "value": 102, "unit": "%"},
      {"measurement": "viability, T/C", "setting": "second compound 0.0316 µM, first compound 1 µM", "value": 67.5, "unit": "%"},
      {"measurement": "viability, T/C", "setting": "second compound 0.0316 µM, first compound 3.16 µM", "value": 2.68, "unit": "%"},
      {"measurement": "viability, T/C", "setting": "second compound 0.0316 µM, first compound 10 µM", "value": 0.57, "unit": "%"},
      {"measurement": "viability, T/C", "setting": "second compound 0.1 µM, first compound 0.0316 µM", "value": 105, "unit": "%"},
      {"measurement": "viability, T/C", "setting": "second compound 0.1 µM, first compound 0.1 µM", "value": 106, "unit": "%"},
      {"measurement": "viability, T/C", "setting": "second compound 0.1 µM, first compound 0.316 µM", "value": 95.3, "unit": "%"},
      {"measurement": "viability, T/C", "setting": "second compound 0.1 µM, first compound 1 µM", "value": 74.5, "unit": "%"},
      {"measurement": "viability, T/C", "setting": "second compound 0.1 µM, first compound 3.16 µM", "value": 3.04, "unit": "%"},
      {"measurement": "viability, T/C", "setting": "second compound 0.1 µM, first compound 10 µM", "value": 0.56, "unit": "%"},
      {"measurement": "viability, T/C", "setting": "second compound 0.316 µM, first compound 0.0316 µM", "value": 85.5, "unit": "%"},
      {"measurement": "viability, T/C", "setting": "second compound 0.316 µM, first compound 0.1 µM", "value": 103, "unit": "%"},
      {"measurement": "viability, T/C", "setting": "second compound 0.316 µM, first compound 0.316 µM", "value": 94.1, "unit": "%"},
      {"measurement": "viability, T/C", "setting": "second compound 0.316 µM, first compound 1 µM", "value": 83.5, "unit": "%"},
      {"measurement": "viability, T/C", "setting": "second compound 0.316 µM, first compound 3.16 µM", "value": 2.75, "unit": "%"},
      {"measurement": "viability, T/C", "setting": "second compound 0.316 µM, first compound 10 µM", "value": 0.5, "unit": "%"},
      {"measurement": "viability, T/C", "setting": "second compound 1 µM, first compound 0.0316 µM", "value": 113, "unit": "%"},
      {"measurement": "viability, T/C", "setting": "second compound 1 µM, first compound 0.1 µM", "value": 89.7, "unit": "%"},
      {"measurement": "viability, T/C", "setting": "second compound 1 µM, first compound 0.316 µM", "value": 92, "unit": "%"},
      {"measurement": "viability, T/C", "setting": "second compound 1 µM, first compound 1 µM", "value": 83.1, "unit": "%"},
      {"measurement": "viability, T/C", "setting": "second compound 1 µM, first compound 3.16 µM", "value": 2.71, "unit": "%"},
      {"measurement": "viability, T/C", "setting": "second compound 1 µM, first compound 10 µM", "value": 0.44, "unit": "%"},
      {"measurement": "viability, T/C", "setting": "second compound 3.16 µM, first compound 0.0316 µM", "value": 103, "unit": "%"},
      {"measurement": "viability, T/C", "setting": "second compound 3.16 µM, first compound 0.1 µM", "value": 90.3, "unit": "%"},
      {"measurement": "viability, T/C", "setting": "second compound 3.16 µM, first compound 0.316 µM", "value": 97, "unit": "%"},
      {"measurement": "viability, T/C", "setting": "second compound 3.16 µM, first compound 1 µM", "value": 75.2, "unit": "%"},
      {"measurement": "viability, T/C", "setting": "second compound 3.16 µM, first compound 3.16 µM", "value": 3.48, "unit": "%"},
      {"measurement": "viability, T/C", "setting": "second compound 3.16 µM, first compound 10 µM", "value": 0.51, "unit": "%"},
      {"measurement": "viability, T/C", "setting": "second compound 10 µM, first compound 0.0316 µM", "value": 93.3, "unit": "%"},
      {"measurement": "viability, T/C", "setting": "second compound 10 µM, first compound 0.1 µM", "value": 96.3, "unit": "%"},
      {"measurement": "viability, T/C", "setting": "second compound 10 µM, first compound 0.316 µM", "value": 79, "unit": "%"},
      {"measurement": "viability, T/C", "setting": "second compound 10 µM, first compound 1 µM", "value": 73, "unit": "%"},
      {"measurement": "viability, T/C", "setting": "second compound 10 µM, first compound 3.16 µM", "value": 2.33, "unit": "%"},
      {"measurement": "viability, T/C", "setting": "second compound 10 µM, first compound 10 µM", "value": 0.39, "unit": "%"}
    ]}
  ]
}
